Experimental data as given in PubChem BioAssay AID192 (DTP/NCI, 2004).
Toxic doses and inconclusive results are not listed. Rule for the calls: active = survival T/C of 150% or more; inactive = T/C below 125% in these data.

System: BDF1 mice, B16 melanoma ip, median survival T/C
Assay: NCI In Vivo Anticancer Drug Screen. Data for tumor model B16 Melanoma (intraperitoneal) in B6D2F1 (BDF1) mice
Conditions: endpoint: median survival time, higher = longer survival
Method in brief: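 Mice with transplantable tumors; drug vs vehicle groups; endpoint survival or tumor size; value = T/C.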

[1] = dose: 12.5 mg/kg/injection, schedule: Q01DX009 (ip), vehicle: Klucel (hydroxypropylcellulose) (HPC)
[2] = dose: 25.0 mg/kg/injection, schedule: Q01DX009 (ip), vehicle: Klucel (hydroxypropylcellulose) (HPC)
[3] = dose: 12.5 mg/kg/injection, schedule: Q01DX009 (ip), vehicle: saline with Tween-80
[4] = dose: 25.0 mg/kg/injection, schedule: Q01DX009 (ip), vehicle: saline with Tween-80
[5] = dose: 50.0 mg/kg/injection, schedule: Q01DX009 (ip), vehicle: saline with Tween-80
[6] = dose: 100.0 mg/kg/injection, schedule: Q01DX009 (ip), vehicle: saline with Tween-80
[7] = dose: 200.0 mg/kg/injection, schedule: Q01DX009 (ip), vehicle: saline with Tween-80
[8] = dose: 50.0 mg/kg/injection, schedule: Q01DX009 (ip), vehicle: Klucel (hydroxypropylcellulose) (HPC)
[9] = dose: 100.0 mg/kg/injection, schedule: Q01DX009 (ip), vehicle: Klucel (hydroxypropylcellulose) (HPC)
[10] = dose: 200.0 mg/kg/injection, schedule: Q01DX009 (ip), vehicle: Klucel (hydroxypropylcellulose) (HPC)
[11] = dose: 12.5 mg/kg/injection, schedule: Q01DX009 (ip), vehicle: saline
[12] = dose: 25.0 mg/kg/injection, schedule: Q01DX009 (ip), vehicle: saline
[13] = dose: 50.0 mg/kg/injection, schedule: Q01DX009 (ip), vehicle: saline
[14] = dose: 100.0 mg/kg/injection, schedule: Q01DX009 (ip), vehicle: saline
[15] = dose: 400.0 mg/kg/injection, schedule: Q01DX009 (ip), vehicle: Klucel (hydroxypropylcellulose) (HPC)

Measured: T/C

[Cl][Pt+2][Cl].[NH-]c1ccc(C(=O)c2ccccc2)cc1[NH-]
inactive: dose: 20.0 mg/kg/injection, schedule: Q01DX009 (ip), vehicle: saline with Tween-80 108 % of control | dose: 40.0 mg/kg/injection, schedule: Q01DX009 (ip), vehicle: saline with Tween-80 113 % of control | dose: 80.0 mg/kg/injection, schedule: Q01DX009 (ip), vehicle: saline with Tween-80 118 % of control | dose: 160.0 mg/kg/injection, schedule: Q01DX009 (ip), vehicle: saline with Tween-80 114 % of control | dose: 320.0 mg/kg/injection, schedule: Q01DX009 (ip), vehicle: saline with Tween-80 113 % of control

O=C1CN=C(c2ccccc2)c2cc(Cl)ccc2N1
inactive: dose: 6.25 mg/kg/injection, schedule: Q01DX009 (ip), vehicle: Klucel (hydroxypropylcellulose) (HPC) 102 % of control | [1] 90 % of control | [2] 90 % of control

CC(C)N(C(=O)c1ccc(C(=O)N(c2ccccc2)C(C)C)cc1)c1ccccc1
inactive: [3] 103 % of control | [4] 99 % of control | [5] 99 % of control

CCCCCCCCCCCCCC(=O)OC12CC(C)C3(O)C(C=C(CO)C(O)C4(O)C(=O)C(C)=CC43)C1C2(C)C (configuration not stated)
inactive: dose: 0.01 mg/kg/injection, schedule: Q01DX009 (ip), vehicle: saline + alcohol 99 % of control | dose: 0.03 mg/kg/injection, schedule: Q01DX009 (ip), vehicle: saline + alcohol 107 % of control | dose: 0.06 mg/kg/injection, schedule: Q01DX009 (ip), vehicle: saline + alcohol 104 % of control | dose: 0.12 mg/kg/injection, schedule: Q01DX009 (ip), vehicle: saline + alcohol 94 % of control | dose: 0.13 mg/kg/injection, schedule: Q01DX009 (ip), vehicle: saline + alcohol 100 % of control

COc1ccc(Nc2c3ccccc3nc3ccccc23)cc1
inactive: [3] 120 % of control

CN1NCc2cncnc21
inactive: [5] 107 % of control | [6] 101 % of control | [7] 97 % of control

CCOC(=O)c1[nH]cnc1/N=N/N(C)CCO
inactive: dose: 12.5 mg/kg/injection, schedule: Q01DX009 (ip), vehicle: carboxymethylcellulose (CMC) 104 % of control | dose: 25.0 mg/kg/injection, schedule: Q01DX009 (ip), vehicle: carboxymethylcellulose (CMC) 118 % of control | dose: 50.0 mg/kg/injection, schedule: Q01DX009 (ip), vehicle: carboxymethylcellulose (CMC) 95 % of control | dose: 100.0 mg/kg/injection, schedule: Q01DX009 (ip), vehicle: carboxymethylcellulose (CMC) 100 % of control | dose: 200.0 mg/kg/injection, schedule: Q01DX009 (ip), vehicle: carboxymethylcellulose (CMC) 113 % of control

COC(=O)Nc1nc2ccc(C(=O)c3ccccc3)cc2[nH]1
inactive: dose: 2.0 mg/kg/injection, schedule: Q04DX003 (ip), vehicle: saline with Tween-80 95 % of control | dose: 4.0 mg/kg/injection, schedule: Q04DX003 (ip), vehicle: saline with Tween-80 106 % of control | dose: 8.0 mg/kg/injection, schedule: Q04DX003 (ip), vehicle: saline with Tween-80 101 % of control | dose: 15.0 mg/kg/injection, schedule: Q04DX003 (ip), vehicle: saline with Tween-80 114 % of control | dose: 16.0 mg/kg/injection, schedule: Q04DX003 (ip), vehicle: saline with Tween-80 103 % of control | dose: 200.0 mg/kg/injection, schedule: Q04DX003 (oral), vehicle: saline with Tween-80 115 % of control

O=[N+]([O-])CC1(O)CCCCC1
inactive: [1] 102 % of control | [2] 94 % of control

C=C1Sc2ccccc2N1C
inactive: [1] 96 % of control | [2] 94 % of control

O=Nc1ccc(O)c(=O)cc1
inactive: dose: 1.0 mg/kg/injection, schedule: Q01DX009 (ip), vehicle: saline with Tween-80 97 % of control | dose: 2.0 mg/kg/injection, schedule: Q01DX009 (ip), vehicle: saline with Tween-80 90 % of control

COc1cc(C(=O)CC(O)(C(F)(F)F)C(F)(F)F)cc(OC)c1OC
inactive: dose: 50.0 mg/kg/injection, schedule: Q04DX003 (ip), vehicle: Klucel (hydroxypropylcellulose) (HPC) 100 % of control | dose: 100.0 mg/kg/injection, schedule: Q04DX003 (ip), vehicle: Klucel (hydroxypropylcellulose) (HPC) 110 % of control | dose: 200.0 mg/kg/injection, schedule: Q04DX003 (ip), vehicle: Klucel (hydroxypropylcellulose) (HPC) 97 % of control

CC(C)(C)OC(=O)C(CC(=O)O)NC(=O)OCc1ccccc1 (configuration not stated) (tested in a mixture with another compound)
inactive: dose: 15.0 mg/kg/injection, schedule: Q01DX009 (ip), vehicle: saline 107 % of control | dose: 30.0 mg/kg/injection, schedule: Q01DX009 (ip), vehicle: saline 102 % of control | dose: 60.0 mg/kg/injection, schedule: Q01DX009 (ip), vehicle: saline 108 % of control

CCN(C)N=Nc1ccc(C(N)=O)cc1
inactive: [2] 104 % of control | [8] 112 % of control

COc1cc2c(cc1OC)C(CCc1ccc(Cl)cc1)N(C)CC2 (configuration not stated)
inactive: [2] 88 % of control | [8] 93 % of control | [9] 98 % of control | [10] 93 % of control

CCN(CC)CCOC(=O)N(c1ccccc1)c1ccccc1
inactive: dose: 6.25 mg/kg/injection, schedule: Q01DX009 (ip), vehicle: saline 104 % of control | [11] 100 % of control | [12] 104 % of control | [13] 95 % of control | [14] 86 % of control

Cc1c2cc3c(c1O)C(=O)CC(O3)c1ccc(O)c(c1)-c1ccc(O)c(c1)C(=O)OCC1OC(O2)C(O)C(O)C1O (configuration not stated)
inactive: dose: 0.13 mg/kg/injection, schedule: Q01DX009 (ip), vehicle: Klucel (hydroxypropylcellulose) (HPC) 91 % of control | dose: 0.25 mg/kg/injection, schedule: Q01DX009 (ip), vehicle: Klucel (hydroxypropylcellulose) (HPC) 94 % of control | dose: 0.5 mg/kg/injection, schedule: Q01DX009 (ip), vehicle: Klucel (hydroxypropylcellulose) (HPC) 95 % of control | dose: 1.0 mg/kg/injection, schedule: Q01DX009 (ip), vehicle: Klucel (hydroxypropylcellulose) (HPC) 94 % of control

CCC(=O)O[C@H]1CC[C@H]2[C@@H]3CCC4=CC(=O)CC[C@]4(C)[C@H]3CC[C@]12C
inactive: [2] 96 % of control | dose: 40.0 mg/kg/injection, schedule: Q02DX009 (ip), vehicle: Klucel (hydroxypropylcellulose) (HPC) 100 % of control | [8] 90 % of control | dose: 80.0 mg/kg/injection, schedule: Q02DX009 (ip), vehicle: Klucel (hydroxypropylcellulose) (HPC) 105 % of control | [9] 95 % of control | [10] 91 % of control | dose: 320.0 mg/kg/injection, schedule: Q02DX009 (ip), vehicle: Klucel (hydroxypropylcellulose) (HPC) 105 % of control | [15] 94 % of control

CN(C)CCCN1c2ccccc2S(=O)c2ccc(Cl)cc21 (configuration not stated)
inactive: [11] 97 % of control | [12] 100 % of control | [13] 108 % of control | [14] 94 % of control

COc1ccccc1NC(=O)Oc1c(C(C)C)cccc1C(C)C
inactive: [9] 93 % of control | [10] 90 % of control | [15] 93 % of control

CCN(C(=O)Nc1ccccc1OC)c1ccccc1
inactive: [9] 89 % of control

O=C1C2C(C(=O)N1c1ccc(OCc3ccccc3)cc1)C1c3ccccc3C2C2CCCCN21 (configuration not stated)
inactive: dose: 3.13 mg/kg/injection, schedule: Q01DX009 (ip), vehicle: water 103 % of control | dose: 6.25 mg/kg/injection, schedule: Q01DX009 (ip), vehicle: water 98 % of control | dose: 12.5 mg/kg/injection, schedule: Q01DX009 (ip), vehicle: water 104 % of control

Oc1ccc2ccccc2c1Cc1c(O)ccc2ccccc12
inactive: [4] 93 % of control | [5] 91 % of control | [6] 94 % of control | [7] 90 % of control

CCCCCCCCC(=O)NCCOC
inactive: [8] 104 % of control | [9] 101 % of control | [10] 101 % of control

COc1cc2c(cc1OC)/C(=C\C(=O)N1CCCC1=O)CCC2
inactive: [9] 97 % of control | [10] 100 % of control | [15] 117 % of control
